In US20030017520A1, “High-efficiency assay for protein mannosyl transferases” (priority 2001, published 2003):
Several values for one entry are separate records, joined by “and”; a condition that tells them apart may be missing. Identical values can stand only once. Entries after “also recorded” stand apart in the source; their conditions may differ.

How the values were obtained:
acceptor peptide YNPTSV = system: T1, acceptor peptide YNPTSV
T1 sequence: YNPTSV

[1] = system: protein mannosyl transferases (PMTs), crude enzyme; test: LUV-based (UPV) PMT activity assay: transfer of [3H]-mannose from Dol-P-Man to acceptor peptide; assay type: biochemical, S. cervisiae; settings: for inhibition of the PMT enzyme by divalent cation chelator: LUV assay conditions (FIG. 7B)
Description: The assays using the UPV method contained 20 mM Tris-HCl, pH 7.5, 10 mM MgCl2, 2.5 mM of the peptide, YNPTSV, 1.5 μl Dol-P-[^3H]-Man (approximately 0.9×10^6 cpm) “solubilized” in 100 μg POPC LUV's and 8 μg of crude enzyme (see Example 2) in a final volume of 40 μl. The assay samples were incubated for 2-30 minutes (varied per individual experiments) at 20° C. and at the end of the incubation the reaction was stopped by the addition of 10 μl 50 mM CuSO4 or 1 ml 0.1% TFA.
Assay reaction products were isolated on C18 cartridges (1 cc/100 mg Bond Elut) obtained from Varian [Homa et al. Prot. Exp. Purif., 6:141-48; 1995]. Isolation of reaction product by solvent extraction was carried out as described by Strahl-Bolsinger and Tanner [Eur. J. Biochem., 196:185-90; 1991].
As part of the characterization of the UPV PMT assay, other parameters such as the influence of detergents and ion dependence were also investigated. PMT assays (using LUVs as produced by the method in Example 3) were conducted by the methods of Example 5. Assays were performed at two concentrations of enzymes (5 and 10 μl). Buffers containing only CHAPS or CHAPS+50% glycerol were substituted for the standard Extraction Buffer used to solubilize the ezyme (see FIG. 6A). The effect of increased detergent concentration was investigated by the addition of increasing amounts of Extraction Buffer (see FIG. 6B).
Experiments were also conducted (as described immediately above) to determine whether PMTs are ion dependent. The control assay (10 mM Mg) contained LUVs made in buffer containing 10 mM MgCl2. All other assays contained LUVs prepared in buffer without MgCl2. […] Enzymol. Relat. Areas Mol. Biol., 52:23-175; 1981].

[2] = system: protein mannosyl transferases (PMTs); settings: detergent based assay; read-out: Km previously determined; cited from earlier work

protein mannosyl transferases (PMTs), crude detergent extract of S. cervisiae (strain BY4743) microsomal membranes
Vmax (LUV-based PMT enzyme activity assay, crude enzyme) (acceptor peptide YNPTSV): Vmax was determined to be approximately 7.25 pmol min.^-1 mg protein^-1 | apparent Km (LUV-based PMT enzyme activity assay, crude enzyme) (acceptor peptide YNPTSV): the apparent Km (using crude enzyme preparation) was determined to be approximately 1 mM | apparent Km (LUV-based PMT enzyme activity assay, crude yeast microsomal lysate) (acceptor peptide YNPTSV): an apparent Km of 1.5 mM, for the acceptor peptide YNPTSV

O=C(O)CN(CCN(CC(=O)O)CC(=O)O)CC(=O)O [EDTA]
inhibition of the PMT enzyme by divalent cation chelator [1]: does not inhibit the enzyme; also recorded: appears not to inhibit the enzyme

O=C(O)CN(CCOCCOCCN(CC(=O)O)CC(=O)O)CC(=O)O [EGTA]
inhibition of the PMT enzyme by divalent cation chelator [1]: equally ineffective

c1cnc2c(c1)ccc1cccnc12 [orthophenanthroline]
inhibition of the PMT enzyme by divalent cation chelator [1]: equally ineffective

YNPTSV (synthesized acceptor peptide) [standard synthetic acceptor peptide containing an acceptor site for PMTs]
Vmax ([1]; Dol-P-Man in POPC LUVs, crude enzyme preparation): approximately 7.25 pmol min.^−1 mg protein^−1 | Km ([1]; Dol-P-Man in POPC LUVs, crude enzyme preparation (yeast microsomal lysate), read-out: apparent Km for the acceptor peptide): 1500 µM and ~1000 µM | Km [2]: 3300 µM
